The compounds below were run against Escherichia coli MAT (eMAT) (Escherichia coli, UniProt P0A817) (assay: MAT assay, turnover of S/Se-Met analogs to S(Se)AM analogs (RP-HPLC end point)). Settings: 2 mM Met analog, 1 mM ATP, 5 μM MAT, pH 8, 4 h, 37° C.; average of two assays.
Type: biochemical
Experimental: Standard uniform assay conditions (2 mM Met analog, 1 mM ATP, 5 μM MAT, 25 mM Tris, 5 mM MgCl2, 50 mM KCl, pH 8, 4 h) were adopted to facilitate this broad assessment. For the thermophilic counterpart (mMAT), reactions were conducted at 65° C., while all other reactions were incubated at 37° C. Production of SAM analogs was determined by an RP-HPLC end point assay to afford complete analysis of the desired SAM analog and/or any corresponding degradation products known to directly derive from the desired SAM analog intermediate. Putative SAM analog and SAM-derived degradative product formation was subsequently confirmed via high-resolution mass spectrometry (HRMS) analysis for all positive reactions (see Table 2).
(§1) To monitor MAT reactions, analytical RP HPLC employed a Luna C18 column (5 μm, 4.6 mm×250 mm; Phenomenex, Torrance, Calif., USA) [gradient of 10% B to 40% B over 15 min, 40% B to 75% B over 5 min (A=10 mM NaH2PO4, 5 mM octane sulfonic acid, pH was adjusted to 3.5 using phosphoric acid; B=acetonitrile) flow rate=1 mL min^−1; A254].
(§2) In vitro MAT reactions were conducted in a volume of 50 μl with 2 mM S/Se-alkylated analog (compounds 2-30), 1 mM ATP and 5 μM purified MAT in 25 mM Tris buffer pH 8.0, 5 mM MgCl2, 50 mM KCl for 4 h. The sMAT and mMAT reactions were conducted at 65° C. while hMATs and eMAT were incubated at 37° C. Reactions were quenched by adding an equal volume of methanol followed by centrifugation (10,000×g for 15 min) to remove the precipitated protein and product formation for each reaction was subsequently analyzed by RP-HPLC using Method D (FIG. 15, first column). For each reaction, percent yield was based upon the integration of species at 254 nm and calculated by dividing the integrated area of product and/or decomposed product by the sum of integrated area of product and/or decomposed product and the remaining substrate. The assays were repeated twice under identical conditions, and Table 2 (and FIG. 5) represents an average value of two assays. The inclusion of adenine and 5′-R-thio-5′-adenosine in these calculations is based upon the established SAM and ATP chemical decomposition pathways which indicate adenine and 5′-R-thio-5′-adenosine to only derive from SAM (not ATP). All putative products were subsequently confirmed by high resolution electrospray ionization (ESI) mass spectra with positive (+) and/or negative (−) mode.

First: CCCSCC[C@H](N)C(=O)O [compound 8, (2S)-2-amino-4-(propylsulfanyl)butanoic acid]
Second: CCCCSCC[C@H](N)C(=O)O [compound 13, (2S)-2-amino-4-(butylsulfanyl)butanoic acid]
The “Percentage Turn-over eMAT” value of the first is higher: 2% for the first, 0% for the second.

`[N-]=[N+]=NCCCSCC[C@H](N)C(=O)O` [compound 21, (2S)-2-amino-4-[(3-azidopropyl)sulfanyl]butanoic acid] and `C#CCCSCC[C@H](N)C(=O)O` [compound 10, (2S)-2-amino-4-(but-3-yn-1-ylsulfanyl)butanoic acid] are the same in “Percentage Turn-over eMAT” value: 0% for the first, 0% for the second.

In the case of `C/C=C/CSCC[C@H](N)C(=O)O` [compound 11, (2S)-2-amino-4-[(2E)-but-2-en-1-ylsulfanyl]butanoic acid], the “Percentage Turn-over eMAT” value is reported as 2%.

Each compound was assayed against human MAT I catalytic subunit alpha (hMAT1A) (Homo sapiens, UniProt Q00266) in the same assay as above. Settings: 2 mM Met analog, 1 mM ATP, 5 μM MAT, pH 8, 4 h, 37° C.; average of two assays.
Type: biochemical
Experimental: (§3) Standard uniform assay conditions (2 mM Met analog, 1 mM ATP, 5 μM MAT, 25 mM Tris, 5 mM MgCl2, 50 mM KCl, pH 8, 4 h) were adopted to facilitate this broad assessment. For the thermophilic counterpart (mMAT), reactions were conducted at 65° C., while all other reactions were incubated at 37° C. Production of SAM analogs was determined by an RP-HPLC end point assay to afford complete analysis of the desired SAM analog and/or any corresponding degradation products known to directly derive from the desired SAM analog intermediate.
as §1
as §2, with “The” for “In vitro MAT reactions were conducted in a volume of 50 μl with 2 mM S/Se-alkylated analog (compounds 2-30), 1 mM ATP and 5 μM purified MAT in 25 mM Tris buffer pH 8.0, 5 mM MgCl2, 50 mM KCl for 4 h. The”

Compared with `CCCSCC[C@H](N)C(=O)O` [compound 8, (2S)-2-amino-4-(propylsulfanyl)butanoic acid], `CCCCSCC[C@H](N)C(=O)O` [compound 13, (2S)-2-amino-4-(butylsulfanyl)butanoic acid] is lower in “Percentage Turn-over hMAT1A” value: 5% for the first, 0% for the second.

`[N-]=[N+]=NCCCSCC[C@H](N)C(=O)O` [compound 21, (2S)-2-amino-4-[(3-azidopropyl)sulfanyl]butanoic acid] and `C#CCCSCC[C@H](N)C(=O)O` [compound 10, (2S)-2-amino-4-(but-3-yn-1-ylsulfanyl)butanoic acid] are the same in “Percentage Turn-over hMAT1A” value: 0% for the first, 0% for the second.

For `C/C=C/CSCC[C@H](N)C(=O)O` [compound 11, (2S)-2-amino-4-[(2E)-but-2-en-1-ylsulfanyl]butanoic acid], the “Percentage Turn-over hMAT1A” value was 2%.

What follows are compounds tested against human MAT II catalytic alpha and regulatory beta subunit (hMAT2) (Homo sapiens, UniProt P31153) in the same assay as above. Settings: 2 mM Met analog, 1 mM ATP, 5 μM MAT, pH 8, 4 h, 37° C.; average of two assays.
Type: biochemical
Experimental: as §3, §1
as §2, with “The” for “In vitro MAT reactions were conducted in a volume of 50 μl with 2 mM S/Se-alkylated analog (compounds 2-30), 1 mM ATP and 5 μM purified MAT in 25 mM Tris buffer pH 8.0, 5 mM MgCl2, 50 mM KCl for 4 h. The”

Going from `CCCSCC[C@H](N)C(=O)O` [compound 8, (2S)-2-amino-4-(propylsulfanyl)butanoic acid] to `CCCCSCC[C@H](N)C(=O)O` [compound 13, (2S)-2-amino-4-(butylsulfanyl)butanoic acid], the “Percentage Turn-over hMAT2” value falls from 55% to 13%.

First: [N-]=[N+]=NCCCSCC[C@H](N)C(=O)O [compound 21, (2S)-2-amino-4-[(3-azidopropyl)sulfanyl]butanoic acid]
Second: C#CCCSCC[C@H](N)C(=O)O [compound 10, (2S)-2-amino-4-(but-3-yn-1-ylsulfanyl)butanoic acid]
The “Percentage Turn-over hMAT2” value of the first is higher: 46% for the first, 40% for the second.

With `C/C=C/CSCC[C@H](N)C(=O)O` [compound 11, (2S)-2-amino-4-[(2E)-but-2-en-1-ylsulfanyl]butanoic acid] the “Percentage Turn-over hMAT2” value was 25%.

Each compound was assayed against human MAT II catalytic alpha subunit alone (hMAT2A) (Homo sapiens, UniProt P31153) in the same assay as above. Settings: 2 mM Met analog, 1 mM ATP, 5 μM MAT, pH 8, 4 h, 37° C.; average of two assays.
Type: biochemical
Experimental: as §3, §1
as §2, with “The” for “In vitro MAT reactions were conducted in a volume of 50 μl with 2 mM S/Se-alkylated analog (compounds 2-30), 1 mM ATP and 5 μM purified MAT in 25 mM Tris buffer pH 8.0, 5 mM MgCl2, 50 mM KCl for 4 h. The”

Compared with `CCCSCC[C@H](N)C(=O)O` [compound 8, (2S)-2-amino-4-(propylsulfanyl)butanoic acid], `CCCCSCC[C@H](N)C(=O)O` [compound 13, (2S)-2-amino-4-(butylsulfanyl)butanoic acid] is lower in “Percentage Turn-over hMAT2A” value: 54% for the first, 12% for the second.

First: [N-]=[N+]=NCCCSCC[C@H](N)C(=O)O [compound 21, (2S)-2-amino-4-[(3-azidopropyl)sulfanyl]butanoic acid]
Second: C#CCCSCC[C@H](N)C(=O)O [compound 10, (2S)-2-amino-4-(but-3-yn-1-ylsulfanyl)butanoic acid]
The “Percentage Turn-over hMAT2A” value of the first is higher: 19% for the first, 12% for the second.

`C/C=C/CSCC[C@H](N)C(=O)O` [compound 11, (2S)-2-amino-4-[(2E)-but-2-en-1-ylsulfanyl]butanoic acid] was tested, and the “Percentage Turn-over hMAT2A” value was 5%.

What follows are compounds tested against T1, Methanocaldococcus jannaschii MAT (mMAT) (Methanocaldococcus jannaschii, UniProt Q58605) (assay: not given). Settings: 2 mM Met analog, 1 mM ATP, 5 μM MAT, pH 8, 4 h, 65° C.; average of two assays.
T1 sequence (Q58605 1-406): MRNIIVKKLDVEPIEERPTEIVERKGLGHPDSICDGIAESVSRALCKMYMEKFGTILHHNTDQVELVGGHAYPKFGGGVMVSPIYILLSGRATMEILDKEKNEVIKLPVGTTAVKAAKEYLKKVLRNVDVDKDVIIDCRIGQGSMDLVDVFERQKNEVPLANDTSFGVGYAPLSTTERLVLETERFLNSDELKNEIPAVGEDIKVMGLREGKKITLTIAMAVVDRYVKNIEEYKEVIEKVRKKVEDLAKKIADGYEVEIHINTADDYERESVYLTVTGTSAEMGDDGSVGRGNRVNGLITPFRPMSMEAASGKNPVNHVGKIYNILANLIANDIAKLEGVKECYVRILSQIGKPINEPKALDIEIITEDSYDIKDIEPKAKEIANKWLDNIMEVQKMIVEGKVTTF
Type: biochemical
Experimental: as §3, §1
as §2, with “The” for “In vitro MAT reactions were conducted in a volume of 50 μl with 2 mM S/Se-alkylated analog (compounds 2-30), 1 mM ATP and 5 μM purified MAT in 25 mM Tris buffer pH 8.0, 5 mM MgCl2, 50 mM KCl for 4 h. The”

Compared with `CCCSCC[C@H](N)C(=O)O` [compound 8, (2S)-2-amino-4-(propylsulfanyl)butanoic acid], `CCCCSCC[C@H](N)C(=O)O` [compound 13, (2S)-2-amino-4-(butylsulfanyl)butanoic acid] is lower in “Percentage Turn-over mMAT” value: 21% for the first, 12% for the second.

Compared with `[N-]=[N+]=NCCCSCC[C@H](N)C(=O)O` [compound 21, (2S)-2-amino-4-[(3-azidopropyl)sulfanyl]butanoic acid], `C#CCCSCC[C@H](N)C(=O)O` [compound 10, (2S)-2-amino-4-(but-3-yn-1-ylsulfanyl)butanoic acid] is lower in “Percentage Turn-over mMAT” value: 31% for the first, 16% for the second.

With `C/C=C/CSCC[C@H](N)C(=O)O` [compound 11, (2S)-2-amino-4-[(2E)-but-2-en-1-ylsulfanyl]butanoic acid] the “Percentage Turn-over mMAT” value was 30%.

Each compound was assayed against T2, Sulfolobus solfataricus MAT (sMAT) (Saccharolobus solfataricus, UniProt Q980S9) (assay: not given). Settings: 2 mM analog, 1 mM ATP, 5 μM sMAT, pH 8.0, 4 h at 65° C.; average of two assays.
T2 sequence (Q980S9 1-404): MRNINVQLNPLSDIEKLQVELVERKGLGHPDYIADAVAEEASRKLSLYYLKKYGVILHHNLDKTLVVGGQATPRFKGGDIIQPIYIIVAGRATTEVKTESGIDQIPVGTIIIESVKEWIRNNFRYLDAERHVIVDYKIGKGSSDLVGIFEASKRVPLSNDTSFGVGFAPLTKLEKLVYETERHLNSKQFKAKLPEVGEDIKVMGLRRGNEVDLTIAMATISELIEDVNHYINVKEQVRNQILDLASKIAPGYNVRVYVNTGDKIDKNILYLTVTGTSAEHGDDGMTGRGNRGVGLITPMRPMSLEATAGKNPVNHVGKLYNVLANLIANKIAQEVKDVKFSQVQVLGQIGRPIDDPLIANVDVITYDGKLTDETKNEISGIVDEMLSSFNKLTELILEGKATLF
Type: biochemical
Experimental: In-vitro sMAT assay: In vitro sMAT reactions were conducted in a volume of 50 μl with 2 mM S/Se-alkylated analog, 1 mM ATP and 5 μM purified sMAT in 25 mM Tris buffer pH 8.0, 5 mM MgCl2, 50 mM KCl for 4 h at 65° C. Reactions were quenched by adding an equal volume of methanol followed by centrifugation (10,000×g for 15 min) to remove the precipitated protein and product formation for each reaction was subsequently analyzed by reverse phase HPLC (RP-HPLC) using method described below. For each reaction, percent yield was based upon the integration of species at 254 nm and calculated by dividing the integrated area of product and/or decomposed product by the sum of integrated area of product and/or decomposed product and the remaining substrate. The assays were repeated twice under identical conditions, and Table 4 (and FIG. 17) represents an average value of two assays. The inclusion of adenine and 5′-R-thio-5′-adenosine in these calculations is based upon the established SAM and ATP chemical decomposition pathways which indicate adenine and 5′-R-thio-5′-adenosine to only derive from SAM (not ATP). All putative products were subsequently confirmed by high resolution electrospray ionization (ESI) mass spectra with positive (+) and/or negative (−) mode.
RP-HPLC method: Reactions were quenched by the addition of equal volume of methanol followed by centrifugation at 10,000 g for 15 min to remove precipitated protein before applying on an analytical Varian ProStar HPLC [Luna C18 column, 5 μm, 4.6 mm×250 mm; Phenomenex, Torrance, Calif., USA; gradient of 10% B to 40% B over 15 min, 40% B to 75% B over 5 min (A=10 mM NaH2PO4, 5 mM octane sulfonic acid, pH was adjusted to 3.5 using phosphoric acid; B=acetonitrile) flow rate=1 mL min^−1; A254].

Compared with `CCCSCC[C@H](N)C(=O)O` [compound 8, (2S)-2-amino-4-(propylsulfanyl)butanoic acid], `CCCCSCC[C@H](N)C(=O)O` [compound 13, (2S)-2-amino-4-(butylsulfanyl)butanoic acid] is lower in “Percentage Turn-Over (sMAT)” value: 44% for the first, 27% for the second.

Compared with `[N-]=[N+]=NCCCSCC[C@H](N)C(=O)O` [compound 21, (2S)-2-amino-4-[(3-azidopropyl)sulfanyl]butanoic acid], `C#CCCSCC[C@H](N)C(=O)O` [compound 10, (2S)-2-amino-4-(but-3-yn-1-ylsulfanyl)butanoic acid] is lower in “Percentage Turn-Over (sMAT)” value: 60% for the first, 30% for the second.

For `C/C=C/CSCC[C@H](N)C(=O)O` [compound 11, (2S)-2-amino-4-[(2E)-but-2-en-1-ylsulfanyl]butanoic acid], the “Percentage Turn-Over (sMAT)” value was 27%.

Each compound was assayed against T2, Sulfolobus solfataricus MAT (sMAT) (assay: not given). Settings: ADP in place of ATP, 65° C. for 4 hr, standard assay conditions.
Type: biochemical

With `Nc1ncnc2c1ncn2[C@@H]1O[C@H](COP(=O)(O)OP(=O)(O)O)[C@@H](O)[C@H]1O` [ADP] the “product formation from ADP and methionine” value was “no detectable product”.

— patent publication US9879043B1, “Synthesis of non-natural cofactor analogs of S-adenosyl-L-methionine using methionine adenosyltransferase” (University of Kentucky Research Foundation, priority 2013, dated 2018)
